In assay [1] the target is Aurora kinase B (Homo sapiens) (UniProt Q96GD4). Nature of the assay: Inhibition of human full length AurB expressed in baculovirus assessed as substrate phosphorylation using fluorescence-labelled peptides as substrate at 0.2 uM after 90 mins by microfluidic peptide phosphorylation assay.
For assay [2], the target named is T1, Aurora kinase C (Homo sapiens) (UniProt Q9UQB9).
T1 sequence (whole entry): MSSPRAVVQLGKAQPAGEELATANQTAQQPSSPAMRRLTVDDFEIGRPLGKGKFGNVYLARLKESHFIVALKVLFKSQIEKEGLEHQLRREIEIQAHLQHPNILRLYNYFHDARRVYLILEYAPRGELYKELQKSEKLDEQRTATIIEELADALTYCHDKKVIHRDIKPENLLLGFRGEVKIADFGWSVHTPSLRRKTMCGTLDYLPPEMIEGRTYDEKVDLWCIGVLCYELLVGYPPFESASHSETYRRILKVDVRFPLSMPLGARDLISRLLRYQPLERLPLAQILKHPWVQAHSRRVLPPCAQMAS
Nature of the assay: Inhibition of human full length AurC expressed in baculovirus assessed as substrate phosphorylation using fluorescence-labelled peptides as substrate at 0.1 uM after 90 mins by microfluidic peptide phosphorylation assay.

In assay [3] the target is T2, Serine/threonine-protein kinase Chk1 (Homo sapiens) (UniProt O14757).
T2 sequence (whole entry): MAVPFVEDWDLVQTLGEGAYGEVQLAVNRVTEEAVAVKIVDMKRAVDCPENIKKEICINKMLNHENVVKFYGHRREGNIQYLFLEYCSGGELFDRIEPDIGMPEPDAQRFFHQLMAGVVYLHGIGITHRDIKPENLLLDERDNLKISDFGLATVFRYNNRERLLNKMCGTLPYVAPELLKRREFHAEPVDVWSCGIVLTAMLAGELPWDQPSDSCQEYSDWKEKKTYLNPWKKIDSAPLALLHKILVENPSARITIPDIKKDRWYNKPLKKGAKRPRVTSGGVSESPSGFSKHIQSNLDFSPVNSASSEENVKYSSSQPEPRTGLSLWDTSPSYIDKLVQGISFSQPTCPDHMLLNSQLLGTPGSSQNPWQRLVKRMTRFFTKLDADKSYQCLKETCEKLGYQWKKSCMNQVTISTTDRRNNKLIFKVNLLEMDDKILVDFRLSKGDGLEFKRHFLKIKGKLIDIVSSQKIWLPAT
Kind of assay: Inhibition of human full length CHK1 expressed in baculovirus assessed as substrate phosphorylation using fluorescence-labelled peptides as substrate at 420 uM after 90 mins by microfluidic peptide phosphorylation assay.

For assay [4], the target named is Vascular endothelial growth factor receptor 2 (Homo sapiens) (UniProt P35968). Kind of assay: Inhibition of human KDR cytoplasmic domain expressed in baculovirus assessed as substrate phosphorylation using fluorescence-labelled peptides as substrate at 95 uM after 90 mins by microfluidic peptide phosphorylation assay.
Assay [5] addresses Serine/threonine-protein kinase MARK2 (Homo sapiens) (UniProt Q7KZI7). Nature of the assay: Inhibition of human full length MARK2 expressed in baculovirus assessed as substrate phosphorylation using fluorescence-labelled peptides as substrate at 9 uM after 90 mins by microfluidic peptide phosphorylation assay.
The target of assay [6] is T3, cGMP-dependent protein kinase 1 (Homo sapiens) (UniProt Q13976).
T3 sequence (whole entry): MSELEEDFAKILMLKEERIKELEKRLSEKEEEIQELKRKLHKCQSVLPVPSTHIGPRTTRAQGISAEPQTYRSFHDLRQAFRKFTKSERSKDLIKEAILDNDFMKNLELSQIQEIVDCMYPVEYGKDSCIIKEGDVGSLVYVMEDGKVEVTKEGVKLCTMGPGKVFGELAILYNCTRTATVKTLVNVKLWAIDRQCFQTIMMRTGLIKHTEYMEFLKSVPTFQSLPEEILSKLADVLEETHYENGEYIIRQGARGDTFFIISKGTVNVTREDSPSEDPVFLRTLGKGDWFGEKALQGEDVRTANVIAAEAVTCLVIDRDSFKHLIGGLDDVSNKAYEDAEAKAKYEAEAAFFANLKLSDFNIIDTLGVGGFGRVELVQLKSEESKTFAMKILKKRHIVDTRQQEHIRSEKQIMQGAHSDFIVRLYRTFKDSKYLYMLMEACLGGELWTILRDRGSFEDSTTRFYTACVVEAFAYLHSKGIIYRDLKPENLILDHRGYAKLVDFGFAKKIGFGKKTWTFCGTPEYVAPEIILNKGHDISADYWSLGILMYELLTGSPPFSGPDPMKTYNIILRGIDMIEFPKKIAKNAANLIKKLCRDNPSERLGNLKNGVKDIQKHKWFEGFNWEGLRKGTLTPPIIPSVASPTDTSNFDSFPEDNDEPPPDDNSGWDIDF
Nature of the assay: Inhibition of human full length PKG-1beta expressed in baculovirus assessed as substrate phosphorylation using fluorescence-labelled peptides as substrate at 9 uM after 90 mins by microfluidic peptide phosphorylation assay.

Assay [7] concerns the target T4, Serine/threonine-protein kinase BRSK2 (Homo sapiens) (UniProt Q8IWQ3).
T4 sequence (whole entry): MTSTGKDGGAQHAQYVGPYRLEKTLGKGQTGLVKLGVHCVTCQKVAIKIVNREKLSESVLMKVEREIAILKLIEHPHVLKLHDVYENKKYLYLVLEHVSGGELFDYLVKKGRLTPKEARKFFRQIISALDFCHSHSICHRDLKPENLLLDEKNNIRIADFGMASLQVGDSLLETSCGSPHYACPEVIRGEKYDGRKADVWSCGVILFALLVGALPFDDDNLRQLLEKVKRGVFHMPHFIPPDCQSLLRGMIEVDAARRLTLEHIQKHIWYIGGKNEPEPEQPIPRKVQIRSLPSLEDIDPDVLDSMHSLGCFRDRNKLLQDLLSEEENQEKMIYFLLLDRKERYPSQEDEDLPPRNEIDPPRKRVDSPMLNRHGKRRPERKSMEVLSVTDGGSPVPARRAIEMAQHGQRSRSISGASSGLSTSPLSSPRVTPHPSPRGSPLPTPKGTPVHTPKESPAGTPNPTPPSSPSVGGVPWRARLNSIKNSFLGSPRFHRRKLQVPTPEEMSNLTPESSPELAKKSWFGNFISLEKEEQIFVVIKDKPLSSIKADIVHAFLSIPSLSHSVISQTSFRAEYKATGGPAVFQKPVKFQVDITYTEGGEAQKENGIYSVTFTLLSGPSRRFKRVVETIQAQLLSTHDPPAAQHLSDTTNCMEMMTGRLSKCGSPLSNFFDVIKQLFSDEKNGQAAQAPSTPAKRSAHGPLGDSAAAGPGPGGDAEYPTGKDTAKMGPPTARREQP
Kind of assay: Inhibition of human truncated BRSK2 expressed in baculovirus assessed as substrate phosphorylation using fluorescence-labelled peptides as substrate at 8 uM after 90 mins by microfluidic peptide phosphorylation assay.

Assay [8] deals with Serine/threonine-protein kinase pim-1 (Homo sapiens) (UniProt P11309). Kind of assay: Inhibition of human full length PIM1 expressed in baculovirus assessed as substrate phosphorylation using fluorescence-labelled peptides as substrate at 0.06 uM after 90 mins by microfluidic peptide phosphorylation assay.
Assay [9] has as its target MAP kinase-activated protein kinase 3 (Homo sapiens) (UniProt Q16644). Nature of the assay: Inhibition of human full length MAPKAPK3 expressed in Escherichia coli cell assessed as substrate phosphorylation using fluorescence-labelled peptides as substrate at 0.06 uM after 90 mins by microfluidic peptide phosphorylation assay.

Chain of MAP kinase-activated protein kinase 3 (Homo sapiens) (Q16644 whole entry, looked up): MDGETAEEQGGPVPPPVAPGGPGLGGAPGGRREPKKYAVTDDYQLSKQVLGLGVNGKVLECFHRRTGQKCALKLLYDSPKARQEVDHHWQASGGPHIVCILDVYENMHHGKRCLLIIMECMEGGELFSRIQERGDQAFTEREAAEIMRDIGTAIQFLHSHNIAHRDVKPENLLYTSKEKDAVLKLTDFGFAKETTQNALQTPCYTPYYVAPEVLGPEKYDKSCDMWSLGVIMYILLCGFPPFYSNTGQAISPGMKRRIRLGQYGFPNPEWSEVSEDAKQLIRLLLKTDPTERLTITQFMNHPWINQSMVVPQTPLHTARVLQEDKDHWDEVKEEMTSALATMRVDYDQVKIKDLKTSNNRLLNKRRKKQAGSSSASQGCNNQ
Chain of Aurora kinase B (Homo sapiens) (Q96GD4 whole entry): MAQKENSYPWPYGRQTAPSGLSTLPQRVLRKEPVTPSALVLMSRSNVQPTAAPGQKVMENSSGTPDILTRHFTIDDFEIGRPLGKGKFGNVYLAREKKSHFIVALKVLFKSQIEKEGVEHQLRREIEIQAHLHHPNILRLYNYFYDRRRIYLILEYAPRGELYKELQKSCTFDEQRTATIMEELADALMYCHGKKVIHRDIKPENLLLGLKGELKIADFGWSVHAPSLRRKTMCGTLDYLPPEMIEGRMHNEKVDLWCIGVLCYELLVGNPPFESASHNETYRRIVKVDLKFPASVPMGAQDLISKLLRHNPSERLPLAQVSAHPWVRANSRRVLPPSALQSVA
Chain of Vascular endothelial growth factor receptor 2 (Homo sapiens) (P35968 whole entry, the tested form may be a part): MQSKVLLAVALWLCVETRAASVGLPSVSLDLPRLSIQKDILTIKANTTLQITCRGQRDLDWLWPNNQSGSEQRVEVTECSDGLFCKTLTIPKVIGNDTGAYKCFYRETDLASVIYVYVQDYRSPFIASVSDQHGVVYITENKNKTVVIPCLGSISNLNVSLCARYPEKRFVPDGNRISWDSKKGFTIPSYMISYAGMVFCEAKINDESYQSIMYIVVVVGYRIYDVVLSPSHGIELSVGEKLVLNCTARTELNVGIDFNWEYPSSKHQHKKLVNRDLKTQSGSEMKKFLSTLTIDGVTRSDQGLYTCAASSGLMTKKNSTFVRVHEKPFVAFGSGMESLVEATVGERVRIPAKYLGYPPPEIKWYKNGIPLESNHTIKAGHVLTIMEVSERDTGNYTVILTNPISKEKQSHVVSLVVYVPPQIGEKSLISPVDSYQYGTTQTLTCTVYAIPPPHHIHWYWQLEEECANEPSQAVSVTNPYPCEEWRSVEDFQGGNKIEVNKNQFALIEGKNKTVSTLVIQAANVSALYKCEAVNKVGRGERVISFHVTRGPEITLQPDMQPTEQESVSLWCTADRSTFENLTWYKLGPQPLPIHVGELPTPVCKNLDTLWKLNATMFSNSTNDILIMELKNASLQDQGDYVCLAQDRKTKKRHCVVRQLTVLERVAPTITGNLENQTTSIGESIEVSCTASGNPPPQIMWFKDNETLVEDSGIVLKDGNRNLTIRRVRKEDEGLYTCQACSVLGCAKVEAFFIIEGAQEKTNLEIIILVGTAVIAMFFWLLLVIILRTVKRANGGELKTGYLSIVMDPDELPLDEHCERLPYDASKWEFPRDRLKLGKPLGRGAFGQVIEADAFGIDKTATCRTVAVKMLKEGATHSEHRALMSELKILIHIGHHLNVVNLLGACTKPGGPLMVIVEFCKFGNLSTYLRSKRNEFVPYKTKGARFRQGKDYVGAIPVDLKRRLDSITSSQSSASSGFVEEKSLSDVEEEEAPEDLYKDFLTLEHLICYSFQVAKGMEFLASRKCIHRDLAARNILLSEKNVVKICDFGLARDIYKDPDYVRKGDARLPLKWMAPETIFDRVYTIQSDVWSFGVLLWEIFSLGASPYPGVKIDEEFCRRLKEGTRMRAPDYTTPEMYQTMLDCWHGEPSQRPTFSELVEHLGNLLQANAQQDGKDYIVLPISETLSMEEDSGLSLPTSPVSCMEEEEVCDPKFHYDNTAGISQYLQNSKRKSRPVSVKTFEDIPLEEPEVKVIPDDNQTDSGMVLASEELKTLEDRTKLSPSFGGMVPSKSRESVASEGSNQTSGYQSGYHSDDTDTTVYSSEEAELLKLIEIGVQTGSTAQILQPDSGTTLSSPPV
Chain of Serine/threonine-protein kinase pim-1 (Homo sapiens) (P11309 whole entry, looked up): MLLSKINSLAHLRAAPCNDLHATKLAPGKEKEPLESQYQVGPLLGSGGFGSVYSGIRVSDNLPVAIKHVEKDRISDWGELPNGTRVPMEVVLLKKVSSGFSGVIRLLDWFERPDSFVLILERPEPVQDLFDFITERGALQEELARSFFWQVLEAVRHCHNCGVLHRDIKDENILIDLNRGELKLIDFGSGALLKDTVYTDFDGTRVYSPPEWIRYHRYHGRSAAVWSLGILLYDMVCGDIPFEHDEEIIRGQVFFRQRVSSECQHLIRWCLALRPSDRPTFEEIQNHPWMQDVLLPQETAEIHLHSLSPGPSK
Chain of Serine/threonine-protein kinase MARK2 (Homo sapiens) (Q7KZI7 whole entry): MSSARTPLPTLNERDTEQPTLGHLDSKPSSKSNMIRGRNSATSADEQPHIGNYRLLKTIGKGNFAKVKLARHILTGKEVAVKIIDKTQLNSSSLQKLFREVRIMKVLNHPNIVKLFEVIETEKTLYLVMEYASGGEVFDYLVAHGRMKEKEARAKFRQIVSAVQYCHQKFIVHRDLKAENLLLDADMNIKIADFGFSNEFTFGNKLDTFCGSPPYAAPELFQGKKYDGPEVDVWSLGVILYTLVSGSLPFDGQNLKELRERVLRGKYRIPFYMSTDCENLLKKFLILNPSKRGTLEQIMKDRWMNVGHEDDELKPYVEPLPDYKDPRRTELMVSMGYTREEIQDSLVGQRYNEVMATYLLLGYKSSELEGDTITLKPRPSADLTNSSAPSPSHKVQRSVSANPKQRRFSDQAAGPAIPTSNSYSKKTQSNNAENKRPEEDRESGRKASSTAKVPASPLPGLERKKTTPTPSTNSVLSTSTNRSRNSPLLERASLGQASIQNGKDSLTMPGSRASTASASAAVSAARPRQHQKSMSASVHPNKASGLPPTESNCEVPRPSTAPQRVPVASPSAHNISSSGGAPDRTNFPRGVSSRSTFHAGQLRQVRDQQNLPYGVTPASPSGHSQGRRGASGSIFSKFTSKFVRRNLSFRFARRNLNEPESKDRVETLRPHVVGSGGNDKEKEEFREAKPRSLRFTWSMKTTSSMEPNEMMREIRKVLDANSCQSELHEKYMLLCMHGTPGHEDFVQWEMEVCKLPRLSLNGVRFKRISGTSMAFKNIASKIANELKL

As for `Clc1ccc(C2(c3ccc(-c4ncnc5[nH]cnc45)cc3)CCNCC2)cc1`, the inhibition in assay [1] worked out at 87.5%.
For `C[C@H](CN(C)C)Oc1nc(Nc2cc3cccc(Cl)c3cn2)cnc1C#N`, the inhibition in [2] turned out to be 1%.
For `c1nc(N2CCOCC2)c2nc[nH]c2n1`, the inhibition in assay [3] was 88.5%.
In the case of `NCCc1ccc(-c2ncnc3[nH]cnc23)cc1`, in [4], the inhibition was determined as 72.5%.
With `NCC1CN(c2ncnc3[nH]c4cnccc4c23)CCO1` (centres undefined), the figures for the inhibition in [5] and in [6] were 73% and 12.5%, respectively.
With `NCC1CCN(c2ncnc3[nH]ccc23)CC1`, in [7], the inhibition was determined as 56.5%.
Take `NC1(Cc2ccc(Cl)cc2)CCN(c2ncnc3[nH]ccc23)CC1`: the inhibition in assay [8] stood at 0%; in assay [9], 7%.

By inhibition is commonly meant the change of the read-out against control, counted positive when it falls.

Values taken from ChEMBL document CHEMBL3132769, “Fragment growing to retain or alter the selectivity of anchored kinase hinge-binding fragments” (Medchemcomm, 2014).
